Test results from patent US20080096894A1, “Anti-Bacterial Compounds” (ASTON UNIVERSITY, priority 2005, published 2008).
In brackets after ≈: the same amount, converted by molar mass. Read-outs that look alike come from different tables or passages of the source.

Assays:
[1] = tested on: human mononuclear leucocytes (MNL, white blood cells); test: direct leucocyte toxicity, tryptan blue exclusion, 18 hours; assay type: cell-based; conditions: for % Leucocyte Death: human, 18 h
Experimental: The in vitro assay used human mononuclear leucocytes (MNL, white blood cells) which were incubated with the test compound for 18 hours and cell death determined by tryptan blue exclusion (tryptan blue is a dye, which stains dead cells, whilst living cells extrude it).
The toxicity of 4PYcq and the aldehyde cq and pyridine-4-carboxamidrazone precursors were assessed using the same in vitro assay with human mononuclear leucocytes as that described above. The toxicity of related compounds, 2-hydroxybenzylidene-pyridine-2-carboxamidrazone 4PYbw and benzylidenepyridine-2-carboxamidrazone 4PYaa were also examined.

MRSA = test: MIC, agar dilution, multipoint inoculator; assay type: cell-based, methicillin-resistant Staphylococcus aureus
Experimental: (§1) This activity was measured using a multipoint inoculator method as follows. The MIC for each compound was measured using an agar dilution method (Onda, H., et al., Int. J. Antimicrob. Agents. 18, 263 (2001)) (Mueller Hinton agar) by means of a multipoint inoculator delivering 10^4 colony forming units per spot.
‘Staph’ refers to the reference strain of S. aureus (NCTC 6571). A tick in the MRSA column refers to a positive zone against MRSA strain 96-7474, and the MIC range (in μg/ml) which follows is that found against a panel of ten MRSA strains. Where MIC values are given for MRSA, these are stated as a range of values, as testing was carried out on a panel of clinical isolates.

S. aureus = test: MIC, agar dilution, multipoint inoculator; assay type: cell-based, Staphylococcus aureus; conditions: upper value of MIC reading
Experimental: as §1

E. faecium = test: MIC, agar dilution, multipoint inoculator; assay type: cell-based, Enterococcus faecium; conditions: upper value of MIC reading
Experimental: as §1

S. epidemisis = test: MIC, agar dilution, multipoint inoculator; assay type: cell-based, Staphylococcus epidermidis; conditions: upper value of MIC reading
Experimental: as §1

B. bronchiseptica = test: MIC, agar dilution, multipoint inoculator; assay type: cell-based; conditions: B. bronchiseptica NCTC 8344; upper value of MIC reading
Experimental: as §1

E. faecalis = test: MIC, agar dilution, multipoint inoculator; assay type: cell-based; conditions: upper value of MIC reading
Experimental: as §1

S. aboni = test: MIC, agar dilution, multipoint inoculator; assay type: cell-based; conditions: S. aboni NCTC 6017; upper value of MIC reading
Experimental: as §1

S. haemolyticus = test: MIC, agar dilution, multipoint inoculator; assay type: cell-based; conditions: S. haemolyticus Isolate 1; upper value of MIC reading
Experimental: as §1

[2] = MRSA Isolate 5, upper value of MIC reading, in µg/mL
[3] = MRSA Isolate 1, upper value of MIC reading, in µg/mL
[4] = MRSA Isolate 2, upper value of MIC reading, in µg/mL
[5] = MRSA Isolate 3, upper value of MIC reading, in µg/mL
[6] = MRSA Isolate 4, upper value of MIC reading, in µg/mL
[7] = MRSA Isolate 6, upper value of MIC reading, in µg/mL
[8] = MRSA Isolate 7, upper value of MIC reading, in µg/mL
[9] = MRSA Isolate 8, upper value of MIC reading, in µg/mL
[10] = MRSA Isolate 9, upper value of MIC reading, in µg/mL
[11] = MRSA Isolate 10, upper value of MIC reading, in µg/mL
[12] = panel of ten MRSA strains (clinical isolates)

| Structure (SMILES) | direct MNL toxicity (in words) [1] | % Leucocyte Death ([1]; 0.1 mM) [%] | MIC (S. aureus; S. aureus Cowan 1) [µg/mL] | MIC (MRSA; [2]) | MIC (E. faecium; E. faecium NCTC 7171) [µg/mL] | MIC (S. epidemisis; S. epidemisis Isolate 1) [µg/mL] | MIC (S. aureus; S. aureus NCTC 6571) [µg/mL] | MIC (S. aureus; S. aureus NCTC 10788) [µg/mL] | MIC (MRSA; [3]) | MIC (MRSA; [4]) | MIC (MRSA; [5]) | MIC (MRSA; [6]) | MIC (MRSA; [7]) | MIC (MRSA; [8]) | MIC (MRSA; [9]) | MIC (MRSA; [10]) | MIC (MRSA; [11]) | MRSA MIC range (MRSA; [12]) [µg/mL] | MIC (S. epidemisis; S. epidemisis NCTC 11047) [µg/mL] | MIC (E. faecalis; E. faecalis Isolate 1) [µg/mL] | also measured |
| --- | --- | --- | --- | --- | --- | --- | --- | --- | --- | --- | --- | --- | --- | --- | --- | --- | --- | --- | --- | --- | --- |
| CC(C)(C)c1ccc(/C=N/N=C(\N)c2ccccn2)cc1 [Compound 2PYae] | indistinguishable from the background levels | 1.1 ± 1.0 |  |  |  |  |  |  |  |  |  |  |  |  |  |  |  |  |  |  |  |
| CCC(C)(C)c1ccc(/C=N/N=C(\N)c2ccccn2)cc1 [Compound 2PYaf] | indistinguishable from the background levels |  |  |  |  |  |  |  |  |  |  |  |  |  |  |  |  |  |  |  | MIC (MRSA; Staphylococcus aureus, MRSA, 18 h, panel of ten MRSA strains (clinical isolates), read-out: MRSA MIC range): > 256 µg/mL; % Leucocyte Death ([1]; 1 mM): 3.1 ± 1.0% |
| N/C(=N\N=C\c1ccccc1OCc1ccccc1)c1ccccn1 [Compound 2PYbe] | indistinguishable from the background levels | 5.1 ± 4.1 |  |  |  |  |  |  |  |  |  |  |  |  |  |  |  |  |  |  |  |
| NC(=NN=Cc1ccc(O)c(O)c1O)c1ccccn1 [Compound 2PYcb] |  |  | 256 (≈ 940 µM) | 256 | 256 (≈ 940 µM) | 256 (≈ 940 µM) |  |  |  |  |  |  |  |  |  |  |  |  |  |  | MIC (B. bronchiseptica): 256 µg/mL (≈ 940 µM) |
| N/C(=N\N=C\c1ccccc1Sc1ccc(Cl)cc1)c1ccccn1 [Compound 2PYeh] | indistinguishable from the background levels | 3.7 ± 2.6 |  |  |  |  |  |  |  |  |  |  |  |  |  |  |  |  |  |  |  |
| NC(=NN=Cc1cc(O)c(O)cc1O)c1cccnc1 [Compound 3PYcc] |  |  | 256 (≈ 940 µM) | 256 | 256 (≈ 940 µM) |  | 256 (≈ 940 µM) | 256 (≈ 940 µM) | 256 | 256 | 256 | 256 | 256 | 256 | 256 | 256 | 256 | 128 to 256 | 32 (≈ 118 µM) | 256 (≈ 940 µM) | MIC (E. faecalis; E. faecalis Isolate 2): 256 µg/mL (≈ 940 µM); MIC (E. faecalis; E. faecalis Isolate 4): 256 µg/mL (≈ 940 µM); MIC (E. faecalis; E. faecalis Isolate 5): 128 µg/mL (≈ 470 µM); MIC (E. faecalis; E. faecalis NCTC 5957): 256 µg/mL (≈ 940 µM); MIC (S. aboni): 256 µg/mL (≈ 940 µM) |
| NC(=NN=Cc1cc([N+](=O)[O-])ccc1O)c1cccnc1 [Compound 3PYcj] |  |  | 16 (≈ 56.1 µM) | 4 |  | 128 (≈ 449 µM) | 8 (≈ 28 µM) | 8 (≈ 28 µM) | 4 | 4 | 4 | 4 | 8 | 8 | 8 | 8 | 8 | 2 to 8 | 64 (≈ 224 µM) | 128 (≈ 449 µM) | MIC (E. faecalis; E. faecalis Isolate 2): 128 µg/mL (≈ 449 µM); MIC (E. faecalis; E. faecalis NCTC 5957): 256 µg/mL (≈ 897 µM); MIC (S. aboni): 256 µg/mL (≈ 897 µM) |
| NC(=NN=Cc1cc(Br)cc([N+](=O)[O-])c1O)c1cccnc1 [Compound 3PYcl] |  |  | 64 (≈ 176 µM) | 32 | 256 (≈ 703 µM) | 256 (≈ 703 µM) | 32 (≈ 87.9 µM) | 32 (≈ 87.9 µM) | 64 | 64 | 64 | 32 | 64 | 64 | 64 | 64 | 64 | 16 to 64 | 256 (≈ 703 µM) | 128 (≈ 351 µM) | MIC (E. faecium; E. faecium ACTCC 10541): 128 µg/mL (≈ 351 µM); MIC (E. faecalis; E. faecalis EBH1): 256 µg/mL (≈ 703 µM); MIC (E. faecalis; E. faecalis Isolate 2): 128 µg/mL (≈ 351 µM); MIC (E. faecalis; E. faecalis Isolate 4): 256 µg/mL (≈ 703 µM); MIC (E. faecalis; E. faecalis Isolate 5): 128 µg/mL (≈ 351 µM); MIC (E. faecalis; E. faecalis NCTC 5957): 128 µg/mL (≈ 351 µM); MIC (S. aboni): 256 µg/mL (≈ 703 µM); MIC (S. haemolyticus): 128 µg/mL (≈ 351 µM) |
